Target: T1, HCV NS3-4A serine protease (full-length NS3-4A protein, genotype 1a, strain HCV-1) (Hepatitis C virus genotype 1a, UniProt P26664)
T1 construct: using the full-length NS3-4A protein (genotype 1a, strain HCV-1)
Experiment: HCV NS3-4A protease assay
Assay type: biochemical
Conditions: Protease IC50
Procedure: The inhibitory activity of certain compounds of Table A against HCV NS3-4A serine protease is determined in a homogenous assay using the full-length NS3-4A protein (genotype 1a, strain HCV-1) and a commercially available internally-quenched fluorogenic peptide substrate as described by Taliani, M., et al. 1996 Anal. Biochem. 240:60-67, which is incorporated by reference in its entirety.

T1 sequence (P26664 1658-1711): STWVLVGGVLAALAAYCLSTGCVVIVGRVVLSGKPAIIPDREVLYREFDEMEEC
T1 sequence (P26664 1027-1657): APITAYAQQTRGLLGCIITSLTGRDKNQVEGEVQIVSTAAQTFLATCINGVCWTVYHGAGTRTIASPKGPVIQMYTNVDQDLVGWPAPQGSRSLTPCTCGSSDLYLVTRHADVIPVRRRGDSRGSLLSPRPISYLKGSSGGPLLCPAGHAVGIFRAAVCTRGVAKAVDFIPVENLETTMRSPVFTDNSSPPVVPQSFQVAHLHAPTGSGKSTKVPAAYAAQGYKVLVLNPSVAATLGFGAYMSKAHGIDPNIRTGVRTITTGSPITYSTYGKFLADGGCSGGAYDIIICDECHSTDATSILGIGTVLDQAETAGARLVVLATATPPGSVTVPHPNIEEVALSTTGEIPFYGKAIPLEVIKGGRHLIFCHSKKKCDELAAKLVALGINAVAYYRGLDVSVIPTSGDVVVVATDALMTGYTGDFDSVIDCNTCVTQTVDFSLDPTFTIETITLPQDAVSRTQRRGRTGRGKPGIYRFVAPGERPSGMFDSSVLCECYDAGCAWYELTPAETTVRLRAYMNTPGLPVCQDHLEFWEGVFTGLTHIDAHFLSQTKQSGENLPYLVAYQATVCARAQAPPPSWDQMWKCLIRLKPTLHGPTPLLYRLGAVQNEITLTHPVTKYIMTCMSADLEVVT

C=CCC(C)(NC(=O)[C@@H]1C[C@@]2(CN1C(=O)[C@@H](NC(=O)[C@@H](NC(=O)[C@@H]1CCCCN1C(C)C)C(C)(C)C)C(C)(C)C)C(C)(C)C21CCC1)C(=O)NS(=O)(=O)C1CC1 (stereo partly drawn) [Compound 85, (5R,8S)-N-{1-[(cyclopropylsulfonyl)carba-moyl]-1-methylbut-3-en-1-yl}-7-[(2S)-2-{[(2S)-2-({[(2S)-1-isopropylpiperidin-2-yl]carbonyl}amino)-3,3-dimethylbutanoyl]amino}-3,3-dimethylbutanoyl]-10,10-dimethyl-7-azadispiro[3.0.4.1]decane-8-carboxamide]
IC50: 7630 nM

C=CCC(C)(NC(=O)[C@@H]1C[C@@]2(CN1C(=O)[C@@H](NC(=O)[C@@H](NC(=O)[C@@H]1CCCCN1C(C)C)C(C)(C)C)C(C)(C)C)C(C)(C)C21CCC1)C(=O)NS(=O)(=O)C1CC1 (stereo partly drawn) [Compound 86, (5R,8S)-N-{1-[(cyclopropylsulfonyl)carba-moyl]-1-methylbut-3-en-1-yl}-7-[(2S)-2-{[(2S)-2-({[(2S)-1-isopropylpiperidin-2-yl]carbonyl}amino)-3,3-dimethylbutanoyl]amino}-3,3-dimethylbutanoyl]-10,10-dimethyl-7-azadispiro[3.0.4.1]decane-8-carboxamide]
IC50: 4050 nM

C=C[C@@H]1C[C@]1(NC(=O)[C@@H]1C[C@@]2(CN1C(=O)C(NC(=O)[C@@H](NC(=O)c1cnccn1)C1CCCCC1)C(C)(C)C)C(C)(C)C21CCC1)C(=O)NS(=O)(=O)C1CC1 (stereo partly drawn) [Compound 87, (5R,8S)-7-[2-({(2S)-2-cyclohexyl-2-[(pyrazin-2-ylcarbonyl)amino]acetyl}amino)-3,3-dimethylbutanoyl]-N-{(1R,2S)-1-[(cyclopropylsulfonyl)carba-moyl]-2-vinylcyclopropyl}-10,10-dimethyl-7-azadispiro[3.0.4.1]decane-8-carboxamide]
IC50: 2.5 nM

C=C[C@@H]1C[C@]1(NC(=O)[C@@H]1C[C@@]2(CN1C(=O)[C@@H](NC(=O)[C@@H](NC(=O)c1cnccn1)C1CCCCC1)C(C)(C)C)C(C)(C)C21CCC1)C(=O)NS(=O)(=O)C1CC1 [Compound 88, (5R,8S)-7-[(2S)-2-({(2S)-2-cyclohexyl-2-[(pyrazin-2-ylcarbonyl)amino]acetyl}amino)-3,3-dimethylbutanoyl]-N-{(1R,2S)-1-[(cyclopropylsulfonyl)carba-moyl]-2-vinylcyclopropyl}-10,10-dimethyl-7-azadispiro[3.0.4.1]decane-8-carboxamide]
IC50: 0.8 nM

C=C[C@@H]1C[C@]1(NC(=O)[C@@H]1C[C@@]2(CN1C(=O)[C@@H](NC(=O)[C@@H](NC(=O)C(C)(C)N1CCCC1)C1CCCCC1)C(C)(C)C)C(C)(C)C21CCC1)C(=O)NS(=O)(=O)C1CC1 [Compound 89, (5R,8S)-7-[(2S)-2-({(2S)-2-cyclohexyl-2-[(2-methyl-2-pyrrolidin-1-ylpropanoyl)amino]acetyl}amino)-3,3-dimethylbutanoyl]-N-{(1R,2S)-1-[(cyclopropylsulfonyl)carba-moyl]-2-vinylcyclopropyl}-10,10-dimethyl-7-azadispiro[3.0.4.1]decane-8-carboxamide]
IC50: 0.8 nM

C=C[C@@H]1C[C@]1(NC(=O)[C@@H]1C[C@@]2(CN1C(=O)[C@@H](NC(=O)[C@@H](NC(=O)[C@@H]1CCCN(CC)C1)C1CCCCC1)C(C)(C)C)C(C)(C)C21CCC1)C(=O)NS(=O)(=O)C1CC1 [Compound 90, (5R,8S)-7-[(2S)-2-{[(2S)-2-cyclohexyl-2-({[(3R)-1-ethylpiperidin-3-yl]carbonyl}amino)acetyl]amino}-3,3-dimethylbutanoyl]-N-{(1R,2S)-1-[(cyclopropylsulfonyl)carba-moyl]-2-vinylcyclopropyl}-10,10-dimethyl-7-azadispiro[3.0.4.1]decane-8-carboxamide]
IC50: 0.7 nM

CC[C@@H]1C[C@]1(NC(=O)[C@@H]1C[C@@]2(CN1C(=O)[C@@H](NC(=O)[C@@H](NC(=O)[C@@H]1CCCCN1C(C)C)C(C)(C)C)C(C)(C)C)C(C)(C)C21CCC1)C(=O)NS(=O)(=O)C1CC1 [Compound 91, (5R,8S)-N-{(1R,2R)-1-[(cyclopropylsulfonyl)carba-moyl]-2-ethylcyclopropyl}-7-[(2S)-2-{[(2S)-2-({[(2S)-1-isopropylpiperidin-2-yl]carbonyl}amino)-3,3-dimethylbutanoyl]amino}-3,3-dimethylbutanoyl]-10,10-dimethyl-7-azadispiro[3.0.4.1]decane-8-carboxamide]
IC50: 3.5 nM

C=C[C@@H]1C[C@]1(NC(=O)[C@@H]1C[C@@]2(CN1C(=O)[C@@H](NC(=O)[C@@H](NC(=O)[C@@H]1CCCCN1C(C)C)C1CCCCC1)C(C)(C)C)C(C)(C)C21CCC1)C(=O)NS(=O)(=O)C1CC1 [Compound 92, (5R,8S)-7-[(2S)-2-{[(2S)-2-cyclohexyl-2-({[(2S)-1-isopropylpiperidin-2-yl]carbonyl}amino)acetyl]amino}-3,3-dimethylbutanoyl]-N-{(1R,2S)-1-[(cyclopropylsulfonyl)carba-moyl]-2-vinylcyclopropyl}-10,10-dimethyl-7-azadispiro[3.0.4.1]decane-8-carboxamide]
IC50: 0.4 nM

C=C[C@@H]1C[C@]1(NC(=O)[C@@H]1C[C@@]2(CN1C(=O)[C@@H](NC(=O)[C@@H](NC(=O)C1CCCCN1C(C)C)C(C)(C)C)C(C)(C)C)C(C)(C)C21CCC1)C(=O)NS(=O)(=O)C(C)(C)C (stereo partly drawn) [Compound 93, (5R,8S)-N-{(1R,2S)-1-[(tert-butylsulfonyl)carbamoyl]-2-vinylcyclopropyl}-7-[(2S)-2-{[(2S)-2-{[(1-isopropylpiperidin-2-yl)carbonyl]amino}-3,3-dimethylbutanoyl]amino}-3,3-dimethylbutanoyl]-10,10-dimethyl-7-azadispiro[3.0.4.1]decane-8-carboxamide]
IC50: 8 nM

C=C[C@@H]1C[C@]1(NC(=O)[C@@H]1C[C@@]2(CN1C(=O)[C@@H](NC(=O)[C@@H](NC(=O)C1CCCCN1C(C)C)C(C)(C)C)C(C)(C)C)C(C)(C)C21CCC1)C(=O)NS(C)(=O)=O (stereo partly drawn) [Compound 94, (5R,8S)-7-[(2S)-2-{[(2S)-2-{[(1-isopropylpiperidin-2-yl)carbonyl]amino}-3,3-dimethylbutanoyl]amino}-3,3-dimethylbutanoyl]-10,10-dimethyl-N-{(1R,2S)-1-[(methylsulfonyl)carbamoyl]-2-vinylcyclopropyl}-7-azadispiro[3.0.4.1]decane-8-carboxamide]
IC50: 10 nM

C=C[C@@H]1C[C@]1(NC(=O)[C@@H]1C[C@@]2(CN1C(=O)[C@@H](NC(=O)[C@@H](NC(=O)c1cccnc1)C1CCCCC1)C(C)(C)C)C(C)(C)C21CCC1)C(=O)NS(=O)(=O)C1CC1 [Compound 95, (5R,8S)-7-[(2S)-2-({(2S)-2-cyclohexyl-2-[(pyridin-3-ylcarbonyl)amino]acetyl}amino)-3,3-dimethylbutanoyl]-N-{(1R,2S)-1-[(cyclopropylsulfonyl)carba-moyl]-2-vinylcyclopropyl}-10,10-dimethyl-7-azadispiro[3.0.4.1]decane-8-carboxamide]
IC50: 0.9 nM

C=C[C@@H]1C[C@]1(NC(=O)[C@@H]1C[C@@]2(CN1C(=O)[C@@H](NC(=O)[C@@H](NC(=O)c1ccncc1)C1CCCCC1)C(C)(C)C)C(C)(C)C21CCC1)C(=O)NS(=O)(=O)C1CC1 [Compound 96, (5R,8S)-7-[(2S)-2-{[(2S)-2-cyclohexyl-2-(isonicotinoylamino)acetyl]amino}-3,3-dimethylbutanoyl]-N-{(1R,2S)-1-[(cyclopropylsulfonyl)carba-moyl]-2-vinylcyclopropyl}-10,10-dimethyl-7-azadispiro[3.0.4.1]decane-8-carboxamide]
IC50: 1 nM

C=C[C@@H]1C[C@]1(NC(=O)[C@@H]1C[C@@]2(CN1C(=O)[C@@H](NC(=O)[C@@H](NC(=O)c1ccccn1)C1CCCCC1)C(C)(C)C)C(C)(C)C21CCC1)C(=O)NS(=O)(=O)C1CC1 [Compound 97, (5R,8S)-7-[(2S)-2-({(2S)-2-cyclohexyl-2-[(pyridin-2-ylcarbonyl)amino]acetyl}amino)-3,3-dimethylbutanoyl]-N-{(1R,2S)-1-[(cyclopropylsulfonyl)carba-moyl]-2-vinylcyclopropyl}-10,10-dimethyl-7-azadispiro[3.0.4.1]decane-8-carboxamide]
IC50: 1 nM

C=C[C@@H]1C[C@]1(NC(=O)[C@@H]1C[C@@]2(CN1C(=O)[C@@H](NC(=O)[C@@H](NC(=O)c1ccccc1)C1CCCCC1)C(C)(C)C)C(C)(C)C21CCC1)C(=O)NS(=O)(=O)C1CC1 [Compound 98, (5R,8S)-7-[(2S)-2-{[(2S)-2-(benzoylamino)-2-cyclohexylacetyl]amino}-3,3-dimethylbutanoyl]-N-{(1R,2S)-1-[(cyclopropylsulfonyl)carba-moyl]-2-vinylcyclopropyl}-10,10-dimethyl-7-azadispiro[3.0.4.1]decane-8-carboxamide]
IC50: 1.5 nM

C=C[C@@H]1C[C@]1(NC(=O)[C@@H]1C[C@@]2(CN1C(=O)[C@@H](NC(=O)[C@@H](NC(C)=O)C1CCCCC1)C(C)(C)C)C(C)(C)C21CCC1)C(=O)NS(=O)(=O)C1CC1 [Compound 99, (5R,8S)-7-[(2S)-2-{[(2S)-2-acetamido-2-cyclohexylacetyl]amino}-3,3-dimethylbutanoyl]-N-{(1R,2S)-1-[(cyclopropylsulfonyl)carba-moyl]-2-vinylcyclopropyl}-10,10-dimethyl-7-azadispiro[3.0.4.1]decane-8-carboxamide]
IC50: 6 nM

C=C[C@@H]1C[C@]1(NC(=O)[C@@H]1C[C@@]2(CN1C(=O)[C@@H](NC(=O)[C@@H](NC(=O)c1cnccn1)C(C)(C)C)C(C)(C)C)C(C)(C)C21CCC1)C(=O)NS(=O)(=O)C1CC1 [Compound 100, (5R,8S)-N-{(1R,2S)-1-[(cyclopropylsulfonyl)carba-moyl]-2-vinylcyclopropyl}-7-[(2S)-2-({(2S)-3,3-dimethyl-2-[(pyrazin-2-ylcarbonyl)amino]butanoyl}amino)-3,3-dimethylbutanoyl]-10,10-dimethyl-7-azadispiro[3.0.4.1]decane-8-carboxamide]
IC50: 4 nM
